Source: US7495018B2, “Substituted 1,3-thiazole compounds, their production and use” (Takeda Pharmaceutical Company Limited, priority 2000, dated 2009)

| SMILES | melting point |
| --- | --- |
| Cc1cccc(-c2nc(N(C)C)sc2-c2ccnc(C)c2)c1 [Example Compound 10, N,N-dimethyl-[4-(3-methylphenyl)-5-(2-methyl-4-pyridyl)-1,3-thiazol-2-yl]amine] | 77 to 79 °C |
| Cc1cccc(-c2nc(C(C)(F)F)sc2-c2ccnc(N)c2)c1 [Example 113-2, 4-[2-(1,1-difluoroethyl)-4-(3-methylphenyl)-1,3-thiazol-5-yl]-2-pyridylamine] | 140 to 141 °C |
| Cc1cccc(-c2nc(-c3ccccc3F)sc2-c2ccnc(C)c2)c1 [Example Compound 14-3, 2-(2-fluorophenyl)-4-(3-methylphenyl)-5-(2-methyl-4-pyridyl)-1,3-thiazole] | 73 to 74 °C |
| CCc1nc(-c2ccc(Cl)cc2)c(-c2ccnc(NC(=O)CC3CCCC3)c2)s1 [Example 90-2, N-[4-[4-(4-chlorophenyl)-2-ethyl-1,3-thiazol-5-yl]-2-pyridyl]cyclopentylacetamide] | 149 to 150 °C |
| Cc1cccc(-c2nc(-c3ccccc3Cl)sc2-c2ccnc(C)c2)c1 [Example Compound 14-1, 2-(2-chlorophenyl)-4-(3-methylphenyl)-5-(2-methyl-4-pyridyl)-1,3-thiazole] | 83 to 84 °C |
| CCC(=O)Nc1cc(-c2sc(C3CCN(C(C)=O)CC3)nc2-c2cccc(Cl)c2)ccn1 [Example 94, N-[4-[2-(1-acetylpiperidin-4-yl)-4-(3-chlorophenyl)-1,3-thiazol-5-yl]-2-pyridyl]propionamide] | 174 to 175 °C |
| CC(=O)Nc1cc(-c2sc(C(C)OC(=O)c3ccccc3)nc2-c2cccc(Cl)c2)ccn1 (stereo not shown) [Example 103-1, 1-[5-(2-acetylamino-4-pyridyl)-4-(3-chlorophenyl)-1,3-thiazol-2-yl]ethyl benzoate] | 152 to 154 °C |
| Cc1cccc(-c2nc(C(C)OC(=O)c3ccccc3)sc2-c2ccnc(N)c2)c1 (stereo not shown) [Example 99-2, 1-[5-(2-amino-4-pyridyl)-4-(3-methylphenyl)-1,3thiazol-2-yl]ethyl benzoate] | 89 to 91 °C |
| CCOC(=O)Cc1nc(-c2cccc(Cl)c2)c(-c2ccnc(NC(C)=O)c2)s1 [Example 103-2, ethyl [5-(2-acetylamino-4-pyridyl)-4-(3-chlorophenyl)-1,3-thiazol-2-yl]acetate] | 99 to 100 °C |
| CCc1cccc(-c2nc(CC)sc2-c2ccnc(NC(C)=O)c2)c1 [Example 82-7, N-[4-[2-ethyl-4-(3-ethylphenyl)-1,3-thiazol-5-yl]-2-pyridyl]acetamide] | 112 to 113 °C |
| CC(=O)Nc1cc(-c2sc(C(C)O)nc2-c2cccc(C)c2)ccn1 (stereo not shown) [Example 111-1, N-[4-[2-(1-hydroxyethyl)-4-(3-methylphenyl)-1,3-thiazol-5-yl]-2-pyridyl]acetamide] | 99 to 102 °C |
| CCC(=O)Nc1cc(-c2sc(CC)nc2-c2cccc(C(F)(F)F)c2)ccn1 [Example 84-3, N-[4-[2-ethyl-4-(3-trifluoromethylphenyl)-1,3-thiazol-5-yl]-2-pyridyl]propionamide] | 126 to 127 °C |

Second part, the molecule after the results:

| melting point | SMILES |
| --- | --- |
| 194 to 195 °C | Nc1nc(-c2ccc(F)cc2)c(-c2ccnc(NC3CCCCC3)c2)s1 [Example Compound 36-1, [5-(2-cyclohexylamino-4-pyridyl)-4-(4-fluorophenyl)-1,3-thiazol-2-yl]amine] |
| 115 to 116 °C | Cc1cccc(-c2nc(N3CCN(C)CC3)sc2-c2ccnc(C)c2)c1 [Example Compound 14-13, 4-(3-methylphenyl)-2-(4-methylpiperazin-1-yl)-5-(2-methyl-4-pyridyl)-1,3-thiazole] |
| 127 to 130 °C | Cc1cccc(-c2nc(N3CCN(C)CC3)sc2-c2ccnc(C)c2)c1 [Example Compound 14-14, 4-(3-methylphenyl)-2-(1-methylpiperazin-4-yl)-5-(2-methyl-4-pyridyl)-1,3-thiazole] |
| 132 to 133 °C | CCC(=O)Nc1cc(-c2sc(CC)nc2-c2cccc(Cl)c2)ccn1 [Example Compound 30-8, N-[4-[4-(3-chlorophenyl)-2-ethyl-1,3-thiazol-5-yl]-2-pyridyl]propionamide] |
| 158 to 159 °C | CCc1nc(-c2ccccc2)c(-c2ccnc(N)c2)s1 [Example Compound 20-2, 4-(2-ethyl-4-phenyl-1,3-thiazol-5-yl)-2-pyridylamine] |
| 201 to 203 °C | Cc1cccc(-c2nc(NC(=O)c3cccnc3)sc2-c2ccnc(NC3CCCCC3)c2)c1 [Example Compound 42-3, N-[5-(2-cyclohexylamino-4-pyridyl)-4-(3-methylphenyl)-1,3-thiazol-2-yl]nicotinamide] |
| 113 to 115 °C | CCCc1nc(-c2cccc(C)c2)c(-c2ccnc(N)c2)s1 [Example Compound 18-4, 4-[4-(3-methylphenyl)-2-propyl-1,3-thiazol-5-yl]-2-pyridylamine] |
| 159 to 160 °C | CCc1nc(-c2cccs2)c(-c2ccnc(N)c2)s1 [Example Compound 20-12, 4-[2-ethyl-4-(2-thienyl)-1,3-thiazol-5-yl]-2-pyridylamine] |
| 206 to 208 °C | Nc1nc(-c2cccc(Cl)c2)c(-c2ccnc(N3CCCCC3)c2)s1 [Example Compound 35-1, [4-(3-chlorophenyl)-5-(2-piperidino-4-pyridyl)-1,3-thiazol-2-yl]amine] |
| 151 to 153 °C | Cc1cc(C)cc(-c2nc(-c3ccc([S+](C)[O-])cc3)sc2-c2ccnc(C)c2)c1 (stereo not shown) [Example Compound 56-1, 4-(3,5-dimethylphenyl)-5-(2-methyl-4-pyridyl)-2-(4-methylsulfinylphenyl)-1,3-thiazole] |
| 135 to 136 °C | Cc1cccc(-c2nc(C(=O)O)sc2-c2ccnc(C)c2)c1 [Example Compound 25-2, 5-(2-methyl-4-pyridyl)-4-(3-methylphenyl)-1,3-thiazole-2-carboxylic acid] |
| 188 to 189 °C | Cc1cccc(-c2nc(N)sc2-c2ccnc(N3CCOCC3)c2)c1 [Example Compound 34-1, [4-(3-methylphenyl)-5-(2-morpholino-4-pyridyl)-1,3-thiazol-2-yl]amine] |
| 187 to 188 °C | CCC(=O)Nc1cc(-c2sc(-c3ccc(SC)cc3)nc2-c2cccc(Cl)c2)ccn1 [Example Compound 30-11, N-[4-[4-(3-chlorophenyl)-2-[4-(methylthio)phenyl]-1,3-thiazol-5-yl]-2-pyridyl]propionamide] |
| 219 to 221 °C | COc1ccc(C(=O)Nc2nc(-c3cccc(C)c3)c(-c3ccnc(NC4CCCC4)c3)s2)cn1 [Example Compound 48-2, N-[5-(2-cyclopentylamino-4-pyridyl)-4-(3-methylphenyl)-1,3-thiazol-2-yl]-6-methoxynicotinamide] |
| 69 to 71 °C | CCc1nc(-c2cccc(C)c2)c(-c2ccnc(N3CCOCC3)c2)s1 [Example Compound 36-9, 2-ethyl-4-(3-methylphenyl)-5-(2-morpholino-4-pyridyl)-1,3-thiazole] |
| 196 to 197 °C | Cc1cc(C)cc(-c2nc(-c3ccc(S(C)(=O)=O)cc3)sc2-c2ccnc(C)c2)c1 [Example Compound 58-1, 4-(3,5-dimethylphenyl)-5-(2-methyl-4-pyridyl)-2-(4-methylsulfonylphenyl)-1,3-thiazole] |
